Values belong to the compound of their own block, whether it stands above or below them.
Tested on: 186277-243-T-J2-PDC complex spheroids, viability
Assay: Anticancer human tumor 186277-243-T-J2-PDC patient-derived colon adenocarcinoma cell line growth inhibition [RAS]
Details: for viability, T/C: stronger effect = lower value
In short: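 Agents were tested in combination matrices in half-log decrements from a top concentration at or near clinical Cmax (10 microM if undetermined). Targets were multi-cell spheroids of tumour lines plus HUVEC and MSC stromal cells.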

[1] = curve of first compound, second compound 0.00316 µM
[2] = curve of first compound, second compound 0.01 µM
[3] = curve of first compound, second compound 0.0316 µM
[4] = curve of first compound, second compound 0.1 µM
[5] = curve of first compound, second compound 0.316 µM
[6] = curve of first compound, second compound 1 µM
[7] = second compound 0.00316 µM, first compound 0.00316 µM
[8] = second compound 0.00316 µM, first compound 0.01 µM
[9] = second compound 0.00316 µM, first compound 0.0316 µM
[10] = second compound 0.00316 µM, first compound 0.1 µM
[11] = second compound 0.00316 µM, first compound 0.316 µM
[12] = second compound 0.00316 µM, first compound 1 µM
[13] = second compound 0.01 µM, first compound 0.00316 µM
[14] = second compound 0.01 µM, first compound 0.01 µM
[15] = second compound 0.01 µM, first compound 0.0316 µM
[16] = second compound 0.01 µM, first compound 0.1 µM
[17] = second compound 0.01 µM, first compound 0.316 µM
[18] = second compound 0.01 µM, first compound 1 µM
[19] = second compound 0.0316 µM, first compound 0.00316 µM
[20] = second compound 0.0316 µM, first compound 0.01 µM
[21] = second compound 0.0316 µM, first compound 0.0316 µM
[22] = second compound 0.0316 µM, first compound 0.1 µM
[23] = second compound 0.0316 µM, first compound 0.316 µM
[24] = second compound 0.0316 µM, first compound 1 µM
[25] = second compound 0.1 µM, first compound 0.00316 µM
[26] = second compound 0.1 µM, first compound 0.01 µM
[27] = second compound 0.1 µM, first compound 0.0316 µM
[28] = second compound 0.1 µM, first compound 0.1 µM
[29] = second compound 0.1 µM, first compound 0.316 µM
[30] = second compound 0.1 µM, first compound 1 µM
[31] = second compound 0.316 µM, first compound 0.00316 µM
[32] = second compound 0.316 µM, first compound 0.01 µM
[33] = second compound 0.316 µM, first compound 0.0316 µM
[34] = second compound 0.316 µM, first compound 0.1 µM
[35] = second compound 0.316 µM, first compound 0.316 µM
[36] = second compound 0.316 µM, first compound 1 µM
[37] = second compound 1 µM, first compound 0.00316 µM
[38] = second compound 1 µM, first compound 0.01 µM
[39] = second compound 1 µM, first compound 0.0316 µM
[40] = second compound 1 µM, first compound 0.1 µM
[41] = second compound 1 µM, first compound 0.316 µM
[42] = second compound 1 µM, first compound 1 µM
[43] = second compound 0.0316 µM, first compound 3.16 µM
[44] = second compound 0.0316 µM, first compound 10 µM
[45] = second compound 0.1 µM, first compound 3.16 µM
[46] = second compound 0.1 µM, first compound 10 µM
[47] = second compound 0.316 µM, first compound 3.16 µM
[48] = second compound 0.316 µM, first compound 10 µM
[49] = second compound 1 µM, first compound 3.16 µM
[50] = second compound 1 µM, first compound 10 µM
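Further: spheroids exposed to compounds for 7 days before viability read.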

IC50 (curve of compound): > 10000 nM
SMILES: C[C@@H](NC(=O)c1ncnc(N)c1Cl)c1ncc(C(=O)Nc2cc(C(F)(F)F)c(Cl)cn2)s1
viability, T/C (compound 0.0316 µM): 99.8% [middle of 4 runs]
viability, T/C (compound 0.1 µM): 93.7% [middle of 4 runs]
viability, T/C (compound 0.316 µM): 102% [middle of 4 runs]
viability, T/C (compound 1 µM): 91.9% [middle of 4 runs]
viability, T/C (compound 3.16 µM): 104% [middle of 4 runs]
viability, T/C (compound 10 µM): 79.8% [middle of 4 runs]

IC50 [1]: > 10000 nM
IC50 [2]: > 10000 nM
IC50 [3]: > 10000 nM
IC50 [4]: > 10000 nM
IC50 [5]: > 10000 nM
IC50 [6]: > 10000 nM
SMILES: C[C@@H](NC(=O)c1ncnc(N)c1Cl)c1ncc(C(=O)Nc2cc(C(F)(F)F)c(Cl)cn2)s1 + C=CC(=O)N1CCN(c2nc(OCC3CCCN3C)nc3c(F)c(-c4nc(N)cc(C)c4C(F)(F)F)c(Cl)cc23)C(C)C1
viability, T/C [9]: 102%
viability, T/C [10]: 104%
viability, T/C [11]: 73.2%
viability, T/C [12]: 86.2%
viability, T/C (second compound 0.00316 µM, first compound 3.16 µM): 93.9%
viability, T/C (second compound 0.00316 µM, first compound 10 µM): 106%
viability, T/C [15]: 80.8%
viability, T/C [16]: 83.8%
viability, T/C [17]: 114%
viability, T/C [18]: 89.5%
viability, T/C (second compound 0.01 µM, first compound 3.16 µM): 126%
viability, T/C (second compound 0.01 µM, first compound 10 µM): 71.2%
viability, T/C [21]: 104%
viability, T/C [22]: 113%
viability, T/C [23]: 84.3%
viability, T/C [24]: 97.4%
viability, T/C [43]: 122%
viability, T/C [44]: 72.2%
viability, T/C [27]: 86.4%
viability, T/C [28]: 103%
viability, T/C [29]: 103%
viability, T/C [30]: 95.1%
viability, T/C [45]: 121%
viability, T/C [46]: 97.3%
viability, T/C [33]: 103%
viability, T/C [34]: 92.3%
viability, T/C [35]: 95.5%
viability, T/C [36]: 87%
viability, T/C [47]: 104%
viability, T/C [48]: 84.7%
viability, T/C [39]: 104%
viability, T/C [40]: 82%
viability, T/C [41]: 82.4%
viability, T/C [42]: 92.1%
viability, T/C [49]: 91.2%
viability, T/C [50]: 89.8%

Further lines, the compound ahead of its results:

SMILES: O=C(c1ccc(F)c(F)c1Nc1ccc(I)cc1F)N1CC(O)([C@@H]2CCCCN2)C1 + C=CC(=O)N1CCN(c2nc(OCC3CCCN3C)nc3c(F)c(-c4nc(N)cc(C)c4C(F)(F)F)c(Cl)cc23)C(C)C1
IC50 [1]: 52.1 nM
IC50 [2]: 63.7 nM
IC50 [3]: 66.9 nM
IC50 [4]: 74.5 nM
IC50 [5]: 73.4 nM
IC50 [6]: 86.1 nM
viability, T/C [7]: 104%
viability, T/C [8]: 99.3%
viability, T/C [9]: 59.9%
viability, T/C [10]: 34%
viability, T/C [11]: 12%
viability, T/C [12]: 5.96%
viability, T/C [13]: 93.8%
viability, T/C [14]: 110%
viability, T/C [15]: 79.2%
viability, T/C [16]: 30.4%
viability, T/C [17]: 11.9%
viability, T/C [18]: 5.44%
viability, T/C [19]: 99.3%
viability, T/C [20]: 87.8%
viability, T/C [21]: 78.1%
viability, T/C [22]: 35%
viability, T/C [23]: 12.1%
viability, T/C [24]: 5.54%
viability, T/C [25]: 75.7%
viability, T/C [26]: 98%
viability, T/C [27]: 70.5%
viability, T/C [28]: 42.8%
viability, T/C [29]: 11.4%
viability, T/C [30]: 5.74%
viability, T/C [31]: 78.8%
viability, T/C [32]: 92.2%
viability, T/C [33]: 93.8%
viability, T/C [34]: 35.9%
viability, T/C [35]: 13.3%
viability, T/C [36]: 7.18%
viability, T/C [37]: 98.1%
viability, T/C [38]: 96.8%
viability, T/C [39]: 82.6%
viability, T/C [40]: 45.6%
viability, T/C [41]: 13.2%
viability, T/C [42]: 6.57%

SMILES: Nc1ccn(C2OC(CO)C(O)C2(F)F)c(=O)n1 (stereo not given) + C=CC(=O)N1CCN(c2nc(OCC3CCCN3C)nc3c(F)c(-c4nc(N)cc(C)c4C(F)(F)F)c(Cl)cc23)C(C)C1
IC50 [1]: 5.06 nM
IC50 [2]: 5.02 nM
IC50 [3]: 4.55 nM
IC50 [4]: 4.41 nM
IC50 [5]: 4.45 nM
IC50 [6]: < 3.16 nM
viability, T/C [7]: 73.3%
viability, T/C [8]: 16.4%
viability, T/C [9]: 12.9%
viability, T/C [10]: 10.3%
viability, T/C [11]: 11.1%
viability, T/C [12]: 11.5%
viability, T/C [13]: 73.9%
viability, T/C [14]: 14.4%
viability, T/C [15]: 10.9%
viability, T/C [16]: 10.2%
viability, T/C [17]: 9.07%
viability, T/C [18]: 11%
viability, T/C [19]: 65.2%
viability, T/C [20]: 17.3%
viability, T/C [21]: 13.5%
viability, T/C [22]: 10.2%
viability, T/C [23]: 10.7%
viability, T/C [24]: 12.2%
viability, T/C [25]: 64.1%
viability, T/C [26]: 15.2%
viability, T/C [27]: 11.7%
viability, T/C [28]: 11.3%
viability, T/C [29]: 10.1%
viability, T/C [30]: 11.8%
viability, T/C [31]: 64.3%
viability, T/C [32]: 16%
viability, T/C [33]: 13.1%
viability, T/C [34]: 11.8%
viability, T/C [35]: 11.8%
viability, T/C [36]: 12.9%
viability, T/C [37]: 45.3%
viability, T/C [38]: 18.9%
viability, T/C [39]: 17.2%
viability, T/C [40]: 14.1%
viability, T/C [41]: 13.5%
viability, T/C [42]: 14.8%

SMILES: Cc1nc(N2CCC3(CC2)COC(C)C3N)c(CO)nc1Sc1ccnc(N)c1Cl (stereo not given) + C#Cc1c(F)ccc2cc(O)cc(-c3ncc4c(N5CC6CCC(C5)N6)nc(OCC56CCCN5CC(F)C6)nc4c3F)c12
IC50 [3]: 114 nM
IC50 [4]: < 31.6 nM
IC50 [5]: < 31.6 nM
IC50 [6]: < 31.6 nM
IC50 (curve of first compound, second compound 3.16 µM): < 31.6 nM
IC50 (curve of first compound, second compound 10 µM): < 31.6 nM
viability, T/C [21]: 60.5%
viability, T/C [22]: 53.8%
viability, T/C [23]: 23.1%
viability, T/C [24]: 9.38%
viability, T/C [43]: 7.2%
viability, T/C [44]: 5.04%
viability, T/C [27]: 43.9%
viability, T/C [28]: 24.9%
viability, T/C [29]: 9.87%
viability, T/C [30]: 9.03%
viability, T/C [45]: 6.97%
viability, T/C [46]: 6.34%
viability, T/C [33]: 14.7%
viability, T/C [34]: 13.1%
viability, T/C [35]: 9.91%
viability, T/C [36]: 8%
viability, T/C [47]: 6.18%
viability, T/C [48]: 5.92%
viability, T/C [39]: 12.2%
viability, T/C [40]: 10.3%
viability, T/C [41]: 8.18%
viability, T/C [42]: 5.06%
viability, T/C [49]: 6.45%
viability, T/C [50]: 4.66%
viability, T/C (second compound 3.16 µM, first compound 0.0316 µM): 8.78%
viability, T/C (second compound 3.16 µM, first compound 0.1 µM): 9.76%
viability, T/C (second compound 3.16 µM, first compound 0.316 µM): 7.42%
viability, T/C (second compound 3.16 µM, first compound 1 µM): 6.36%
viability, T/C (second compound 3.16 µM, first compound 3.16 µM): 5.23%
viability, T/C (second compound 3.16 µM, first compound 10 µM): 4.36%
viability, T/C (second compound 10 µM, first compound 0.0316 µM): 7.27%
viability, T/C (second compound 10 µM, first compound 0.1 µM): 4.82%
viability, T/C (second compound 10 µM, first compound 0.316 µM): 6.12%
viability, T/C (second compound 10 µM, first compound 1 µM): 4.54%
viability, T/C (second compound 10 µM, first compound 3.16 µM): 4.2%
viability, T/C (second compound 10 µM, first compound 10 µM): 1.83%

SMILES: CCn1c(-c2cccnc2C(C)OC)c2c3cc(ccc31)N1CCOC(CC(NC(=O)C(C(C)C)N(C)C(=O)C3(F)CCN(C(=O)C#CC(C)(C)N(C)C)CC3)C(=O)N3CCCC(N3)C(=O)OCC(C)(C)C2)C1 (stereo not given)
viability, T/C (compound 0.000949 µM): 96.7% [middle of 8 runs]
viability, T/C (compound 0.003 µM): 96.3% [middle of 8 runs]
viability, T/C (compound 0.03 µM): 102% [middle of 8 runs]
viability, T/C (compound 0.3 µM): 103% [middle of 8 runs]
IC50 (compound alone, run of 05/20/2024): > 300 nM

SMILES: CC1(O)CCCC1n1c(=O)c(C(F)F)cc2cnc(NC3CCN(S(C)(=O)=O)CC3)nc21 (stereo not given)
viability, T/C (compound 0.0316 µM): 108% [middle of 4 runs]
viability, T/C (compound 0.1 µM): 114% [middle of 4 runs]
viability, T/C (compound 3.16 µM): 83.6% [middle of 4 runs]
viability, T/C (compound 10 µM): 2.71% [middle of 4 runs]
IC50 (curve of compound): 4.81 µM [middle of 4 runs]

From PubChem BioAssay AID2060908 (Molecular Pharmacology Branch, DTP, NCI, 2025)
